This test concerns the target T1, human GPBAR1 receptor (Homo sapiens, UniProt Q8TDU6).
T1 construct: expressed in transfected cells
T1 sequence (Q8TDU6 1-330): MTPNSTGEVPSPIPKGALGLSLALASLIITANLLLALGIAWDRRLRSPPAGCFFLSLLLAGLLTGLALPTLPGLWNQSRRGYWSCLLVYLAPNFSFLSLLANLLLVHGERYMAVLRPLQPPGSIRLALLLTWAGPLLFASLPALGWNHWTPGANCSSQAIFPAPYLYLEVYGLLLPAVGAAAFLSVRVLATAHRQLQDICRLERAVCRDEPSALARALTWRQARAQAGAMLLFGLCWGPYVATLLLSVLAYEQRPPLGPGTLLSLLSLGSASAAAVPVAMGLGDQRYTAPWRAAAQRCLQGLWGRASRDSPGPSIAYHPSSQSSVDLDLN
The test is described as follows: functional cAMP assay in CHO-dhfr(minus) cells expressing human GPBAR1 receptors. The test is classed as cell-based. The conditions noted are these: 30 min at 30° C. In outline: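 Agonist cAMP read-out: stable GPBAR1 CHO-dhfr− clone, 30 min compound exposure at 30° C following 30 min IBMX (1 mM) preincubation in Krebs Ringer bicarbonate. Time-resolved energy-transfer detection gives EC50; parental CHO cells serve as counter-screen.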

The mark [1] stands for this setting: human EC50, functional cAMP assay.

Read-outs that look alike come from different tables or passages of the source.

What is called EC50 is the concentration that produces a half-maximal response. For the molecule `CCCC(C/C(=N\O)c1ccc(=O)n(C)c1)c1ccc(Br)cc1` (stereo not shown) [Example 174, 5-{3-(4-Bromo-phenyl)-1-[(E)-hydroxyimino]-hexyl}-1-methyl-1H-pyridin-2-one], under setting [1], the EC50 is 268 nM. On the same count and under the same terms, the figure for `Cn1cc(/C(CC(CCCC(F)(F)F)c2ccc(Br)cc2)=N/O)ccc1=O` (stereo not shown) [Example 175, 5-{3-(4-Bromo-phenyl)-7,7,7-trifluoro-1-[(E)-hydroxyimino]-heptyl}-1-methyl-1H-pyridin-2-one] is 1310 nM; for `C=CCC(C/C(=N\O)c1ccc(=O)n(C)c1)c1ccc(Br)cc1` (stereo not shown) [Example 176, 5-{3-(4-Bromo-phenyl)-1-[(E)-hydroxyimino]-hex-5-enyl}-1-methyl-1H-pyridin-2-one] it is 369 nM; for `CCCCC(C/C(=N\O)c1ccc(=O)n(C)c1)c1ccc(Br)cc1` (stereo not shown) [Example 177, 5-{3-(4-Bromo-phenyl)-1-[(E)-hydroxyimino]-heptyl}-1-methyl-1H-pyridin-2-one] it is 256 nM. For the molecule `Cn1cc(/C(CC(c2ccc(Br)cc2)C2CCCCC2)=N/O)ccc1=O` (stereo not shown) [Example 178, 5-{3-(4-Bromo-phenyl)-3-cyclohexyl-1-[(E)-hydroxyimino]-propyl}-1-methyl-1H-pyridin-2-one], it took 42 nM to reach a half-maximal effect under setting [1] (EC50). The molecule `Cn1cc(/C(CC(c2ccc(Br)cc2)C2CCC2)=N/O)ccc1=O` (stereo not shown) [Example 179, 5-{3-(4-Bromo-phenyl)-3-cyclobutyl-1-[(E)-hydroxyimino]-propyl}-1-methyl-1H-pyridin-2-one] came in with an EC50 under setting [1] of 165 nM. Turning to `Cn1cc(/C(CC(Cc2ccc(OC(F)(F)F)cc2)c2ccc(Br)cc2)=N/O)ccc1=O` (stereo not shown) [Example 180, 5-[3-(4-Bromo-phenyl)-1-[(E)-hydroxyimino]-4-(4-trifluoromethoxy-phenyl)-butyl]-1-methyl-1H-pyridin-2-one], a half-maximal response under setting [1] (EC50) required 3450 nM. `CCCC(C/C(=N\O)c1ccc(=O)n(C)c1)c1ccc(Br)cc1F` (stereo not shown) [Example 191, 5-{3-(4-Bromo-2-fluoro-phenyl)-1-[(E)-hydroxyimino]-hexyl}-1-methyl-1H-pyridin-2-one] gave an EC50 under setting [1] of 375 nM. On the same count and under the same terms, to `Cn1cc(/C(CC(c2ccc(Br)cc2F)C2CCCC2)=N/O)ccc1=O` (stereo not shown) [Example 192, 5-{3-(4-Bromo-2-fluoro-phenyl)-3-cyclopentyl-1-[(E)-hydroxyimino]-propyl}-1-methyl-1H-pyridin-2-one] belongs 107 nM. Under setting [1], `Cc1ccccc1C(C/C(=N\O)c1ccc(=O)n(C)c1)c1ccc(Br)cc1F` (stereo not shown) [Example 193, 5-{3-(4-Bromo-2-fluoro-phenyl)-1-[(E)-hydroxyimino]-3-o-tolyl-propyl}-1-methyl-1H-pyridin-2-one] displayed a 50% effective concentration (EC50) of 19 nM. Take `Cn1cc(/C(CC(c2ccccc2Cl)C2CCCC2)=N/O)ccc1=O` (stereo not shown) [Example 197, 5-{3-(2-Chloro-phenyl)-3-cyclopentyl-1-[(E)-hydroxyimino]-propyl}-1-methyl-1H-pyridin-2-one]: the EC50 under setting [1] was found to be 12 nM. For the molecule `Cn1cc(/C(CC(c2ccccc2Cl)C2CC[N+](C)(C)CC2)=N/O)ccc1=O` (stereo not shown) [Example 198, 4-[1-(2-Chloro-phenyl)-3-[(E)-hydroxyimino]-3-(1-methyl-6-oxo-1,6-dihydro-pyridin-3-yl)-propyl]-1,1-dimethyl-piperidinium iodide], under setting [1], the response was half-maximal at 9640 nM (EC50). Under setting [1], `Cc1cc(=O)n(C)cc1/C(CC(c1ccc(Br)cc1)c1ccccc1C)=N/O` (stereo not shown) [Example 199, 5-{3-(4-Bromo-phenyl)-1-[(E)-hydroxyimino]-3-o-tolyl-propyl}-1,4-dimethyl-1H-pyridin-2-one] returned an EC50 of 23 nM. The same measure, in the same setting: to `Cc1cc(=O)n(C)cc1/C(CC(c1ccc(Br)cc1)c1ccccc1C)=N\O` (stereo not shown) [Example 200, 5-{3-(4-Bromo-phenyl)-1-[(Z)-hydroxyimino]-3-o-tolyl-propyl}-1,4-dimethyl-1H-pyridin-2-one] belongs 558 nM; to `Cn1cc(/C(CC(c2ccc(Br)cc2)c2ccccc2Cl)=N/O)ccc1=O` (stereo not shown) [Example 203, 5-{3-(4-Bromo-phenyl)-3-(2-chloro-phenyl)-1-[(E)-hydroxyimino]-propyl}-1-methyl-1H-pyridin-2-one], 12 nM. Regarding `Cc1ccccc1C(C/C(=N\O)c1ccc(=O)n(C)c1)c1ccc(C(=O)N2CCOCC2)cc1` (stereo not shown) [Example 207, 5-{1-[(E)-Hydroxyimino]-3-[4-(morpholine-4-carbonyl)-phenyl]-3-o-tolyl-propyl}-1-methyl-1H-pyridin-2-one], a half-maximal effect under setting [1] (EC50) was put at 711 nM. In turn, `Cc1ccccc1C(C/C(=N\O)c1ccc(=O)n(C)c1)c1ccc(C(=O)NCCO)cc1` (stereo not shown) [Example 208, N-(2-Hydroxy-ethyl)-4-[3-[(E)-hydroxyimino]-3-(1-methyl-6-oxo-1,6-dihydro-pyridin-3-yl)-1-o-tolyl-propyl]-benzamide] registered an EC50 under setting [1] of 93 nM. On the same count and under the same terms, to `Cc1ccccc1C(C/C(=N\O)c1ccc(=O)n(C)c1)c1ccc(C(=O)N(C)CCO)cc1` (stereo not shown) [Example 209, N-(2-Hydroxy-ethyl)-4-[3-[(E)-hydroxyimino]-3-(1-methyl-6-oxo-1,6-dihydro-pyridin-3-yl)-1-o-tolyl-propyl]-N-methyl-benzamide] belongs 443 nM. Still for that read-out and setting: to `Cc1ccccc1C(C/C(=N\O)c1ccc(=O)n(C)c1)c1ccc(C(=O)N2CCC(CC(=O)O)CC2)cc1` (stereo not shown) [Example 210, (1-{4-[3-[(E)-Hydroxyimino]-3-(1-methyl-6-oxo-1,6-dihydro-pyridin-3-yl)-1-o-tolyl-propyl]-benzoyl}-piperidin-4-yl)-acetic acid] belongs 6890 nM; to `Cc1ccccc1C(C/C(=N\O)c1ccc(=O)n(C)c1)c1ccc(C(=O)N(C)CC(=O)O)cc1` (stereo not shown) [Example 211, ({4-[3-[(E)-Hydroxyimino]-3-(1-methyl-6-oxo-1,6-dihydro-pyridin-3-yl)-1-o-tolyl-propyl]-benzoyl}-methyl-amino)-acetic acid], 5980 nM. Consider `CCOC(=O)CCCNC(=O)c1ccc(C(C/C(=N\O)c2ccc(=O)n(C)c2)c2ccccc2C)cc1` (stereo not shown) [Example 212, 4-{4-[3-[(E)-Hydroxyimino]-3-(1-methyl-6-oxo-1,6-dihydro-pyridin-3-yl)-1-o-tolyl-propyl]-benzoylamino}-butyric acid ethyl ester], for which the EC50 (functional cAMP assay, read-out: human EC50) stood at 153 nM. Consider `Cc1ccccc1C(C/C(=N\O)c1ccc(=O)n(C)c1)c1ccc(C(=O)NCCCC(=O)O)cc1` (stereo not shown) [Example 213, 4-{4-[3-[(E)-Hydroxyimino]-3-(1-methyl-6-oxo-1,6-dihydro-pyridin-3-yl)-1-o-tolyl-propyl]-benzoylamino}-butyric acid], for which, under setting [1], the response was half-maximal at 1310 nM (EC50).

Molecule `Cc1ccccc1C(C/C(=N\O)c1ccc(=O)n(C)c1)c1ccc(C(=O)NCCC(=O)O)cc1` (stereo not shown) [Example 214, 3-{4-[3-[(E)-Hydroxyimino]-3-(1-methyl-6-oxo-1,6-dihydro-pyridin-3-yl)-1-o-tolyl-propyl]-benzoylamino}-propionic acid] showed an EC50 under setting [1] of 1220 nM. `Cc1ccccc1C(C/C(=N\O)c1ccc(=O)n(C)c1)c1ccc(C(=O)NCC(=O)O)cc1` (stereo not shown) [Example 215, {4-[3-[(E)-Hydroxyimino]-3-(1-methyl-6-oxo-1,6-dihydro-pyridin-3-yl)-1-o-tolyl-propyl]-benzoylamino}-acetic acid] yielded an EC50 under setting [1] of 810 nM. On the same count and under the same terms, the figure for `Cn1cc(/C(CC(c2ccc(C(=O)N[C@H]3CC[C@H](O)CC3)c(F)c2)c2ccccc2Cl)=N/O)ccc1=O` (stereo partly drawn) [Example 217, Trans-4-[1-(2-Chloro-phenyl)-3-[(E)-hydroxyimino]-3-(1-methyl-6-oxo-1,6-dihydro-pyridin-3-yl)-propyl]-2-fluoro-N-(4-hydroxy-cyclohexyl)-benzamide] is 700 nM.

The record behind these values is patent US8765730B2 (Hoffmann-La Roche Inc, priority 2010, dated 2014).
